This is an account of results in patent publication US11666657B2, “Protein-drug conjugates and their use in the treatment of cancers” (UNIVERSITE DE STRASBOURG, priority 2017, dated 2023).

The subject of one test is HER2+ SK-BR-3 cells. As to the kind of experiment: In vitro efficacy on cell viability (CellTiter 96 AQueous One Solution Cell Proliferation Assay), HER2+ SK-BR-3. As to conditions: 96 hrs treatment. In kind it is cell-based. The protocol:
Antiproliferative activity of the ADCs according to this invention was evaluated on two cell lines and compared with that of the commercial ADC Kadcyla® (T-DM1).
HER2^+ SK-BR-3 and HER2^− MDA-MB-231 cell lines were grown in DMEM—high glucose (4,500 mg/L) supplemented with 10% fetal calf serum, Penicillin (200 U/mL)-Streptomycin (200 μg/mL) and L-glutamin (4 mM) (all from Sigma Aldrich, St Louis, Mo., USA). The effects of the payloads and ADCs on these cell lines were assessed using CellTiter 96® AQueous One Solution Cell Proliferation Assay (Promega, Madison, Wis., USA). The cytotoxic agent MMAE was used as a positive control of cell death and every condition was performed as triplicates. SKBR-3 cells were plated in 96-well plates at 3,000 cells/well for ADC tests and at 5,000 cells/well for payload tests, in 100 μL medium. MDA-MB231 cells were plated in 96-well plates at 15,000 cells/well, in 100 μL medium. The cells were allowed to adhere for 24 hrs at 37° C. in a humidified atmosphere of 5% CO2. Medium was then removed and replaced by payloads, ADCs, or MMAE, at different concentrations in fresh medium. […] Absorbance was measured at 515 nm using a 96-well plate reader (Flx-Xenius XM, Safas, Monaco), and to estimate the percentage of viable cells according to each treatment, the negative controls were considered as 100% viability. […]

Test [1] relates to BT-474 ductal carcinoma tumors. Briefly: In vivo anti-tumour efficacy in nude mice bearing subcutaneous BT-474 tumors. More on the design: species or system Balb/c nude mice. As to conditions: single i.v. injection 1 mg/kg, BT-474 tumours in nude mice, versus control group.
Protocol: In vivo therapeutic efficacy of the ADCs of this invention was evaluated in nude mice bearing subcutaneous BT-474 tumors.
Twenty (20) 6 to 8 week-old Balb/c nude (CByJ.Cg-Foxn1nu/J) females (Charles River Laboratories, L'Arbresles, France) were implanted with BT-474 ductal carcinoma cells (2×10^7) suspended in 200 μL RPMI 1640 medium (Sigma Aldrich) containing matrigel (50:50, v:v, BD Biosciences, France). The injection was performed subcutaneously in the right flank. One day prior implant, the animals were gamma irradiated (2 Gy, ^60Co). The cell transplant was considered as day 0 (D0). Once tumours reached a volume of 200-300 mm^3, mice were randomized according to their individual tumour volume into four distinct groups. The variance of mouse distribution within the groups was analysed to confirm the homogeneity of the groups.
Animal viability, behaviour and well-being were recorded daily; body weight was measured twice a week; and tumour volume was assessed twice a week with a calliper. The volume of the tumour was estimated formula as follow: volume=(width^2×length)/2.
Relative tumour volumes (RTV) were calculated according to the following formula:
Specifically, a principal component analysis (PCA) was carried out using XL Stat software (Addinsoft, Paris, France) in order to compare antitumour activity of T-DM1 and T-APN-Gal-MMAE. […]

Where “and” joins values, the source holds several entries; their conditions need not be identical. Equal values may be shown once.

trastuzumab emtansine [T-DM1]: the concentration for half-maximal inhibition (IC50) (as a rule, the concentration that inhibits the measured activity by half) in the test with HER2+ SK-BR-3 cells was 0.033 nM and 0.0342 nM. For the same substance, the “effect on tumour growth” value in test [1] is given as “not statistically significant”.
